Measurements published in ChEMBL document CHEMBL1201862, “PubChem BioAssay data set” (2004).
The source made the active and inactive calls.

Columns and labels:
[1] = molecular target: T1, Kappa-type opioid receptor (Homo sapiens, UniProt P41145); format: functional
Mu-type opioid receptor [2] = molecular target: T2, Mu-type opioid receptor (Homo sapiens, UniProt P35372); assay: HTS Image-Based Screen for Agonists of the MOR Receptor. [Related pubchem assays (depositor defined):AID1777, AID1785, AID1786, AID2133]; format: functional
T2 sequence (P35372 whole entry): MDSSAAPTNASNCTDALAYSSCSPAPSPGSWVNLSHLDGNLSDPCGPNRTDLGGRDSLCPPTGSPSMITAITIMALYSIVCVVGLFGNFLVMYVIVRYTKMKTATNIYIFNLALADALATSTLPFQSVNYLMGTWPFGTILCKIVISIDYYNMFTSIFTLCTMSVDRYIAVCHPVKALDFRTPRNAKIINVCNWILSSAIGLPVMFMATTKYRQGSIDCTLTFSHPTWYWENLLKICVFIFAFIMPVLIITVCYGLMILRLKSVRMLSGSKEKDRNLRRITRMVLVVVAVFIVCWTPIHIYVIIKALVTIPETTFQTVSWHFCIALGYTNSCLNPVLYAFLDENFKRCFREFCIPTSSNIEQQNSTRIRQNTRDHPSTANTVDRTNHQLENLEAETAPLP

[3] = molecular target: T3, Delta-type opioid receptor (Homo sapiens, UniProt P41143); assay: HTS Image-Based Screen for Agonists of the DOR Receptor. [Related pubchem assays (depositor defined):AID1777, AID1786, AID2133]; format: functional
T3 sequence (P41143 whole entry): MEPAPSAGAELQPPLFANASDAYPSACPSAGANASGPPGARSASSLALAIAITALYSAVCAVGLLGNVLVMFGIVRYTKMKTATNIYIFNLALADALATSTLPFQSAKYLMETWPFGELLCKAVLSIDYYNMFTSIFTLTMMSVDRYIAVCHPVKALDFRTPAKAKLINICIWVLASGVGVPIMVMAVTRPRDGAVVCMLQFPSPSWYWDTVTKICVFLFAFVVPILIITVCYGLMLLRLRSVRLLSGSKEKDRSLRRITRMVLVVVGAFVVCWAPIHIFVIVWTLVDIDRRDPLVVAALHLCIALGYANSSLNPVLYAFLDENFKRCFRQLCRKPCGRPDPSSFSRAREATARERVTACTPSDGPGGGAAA

[4] = molecular target: T3, Delta-type opioid receptor; assay: HTS Image-Based Screen for Antagonists of the DOR Receptor. [Related pubchem assays (depositor defined):AID1777, AID1785, AID1786, AID2133]; format: functional
[5] = molecular target: T1, Kappa-type opioid receptor; format: functional; remark: listed apart in the source
Beta-galactosidase = Beta-galactosidase (Escherichia coli, UniProt Q8VNN2); format: functional
Sequence of Beta-galactosidase (Q8VNN2 whole entry): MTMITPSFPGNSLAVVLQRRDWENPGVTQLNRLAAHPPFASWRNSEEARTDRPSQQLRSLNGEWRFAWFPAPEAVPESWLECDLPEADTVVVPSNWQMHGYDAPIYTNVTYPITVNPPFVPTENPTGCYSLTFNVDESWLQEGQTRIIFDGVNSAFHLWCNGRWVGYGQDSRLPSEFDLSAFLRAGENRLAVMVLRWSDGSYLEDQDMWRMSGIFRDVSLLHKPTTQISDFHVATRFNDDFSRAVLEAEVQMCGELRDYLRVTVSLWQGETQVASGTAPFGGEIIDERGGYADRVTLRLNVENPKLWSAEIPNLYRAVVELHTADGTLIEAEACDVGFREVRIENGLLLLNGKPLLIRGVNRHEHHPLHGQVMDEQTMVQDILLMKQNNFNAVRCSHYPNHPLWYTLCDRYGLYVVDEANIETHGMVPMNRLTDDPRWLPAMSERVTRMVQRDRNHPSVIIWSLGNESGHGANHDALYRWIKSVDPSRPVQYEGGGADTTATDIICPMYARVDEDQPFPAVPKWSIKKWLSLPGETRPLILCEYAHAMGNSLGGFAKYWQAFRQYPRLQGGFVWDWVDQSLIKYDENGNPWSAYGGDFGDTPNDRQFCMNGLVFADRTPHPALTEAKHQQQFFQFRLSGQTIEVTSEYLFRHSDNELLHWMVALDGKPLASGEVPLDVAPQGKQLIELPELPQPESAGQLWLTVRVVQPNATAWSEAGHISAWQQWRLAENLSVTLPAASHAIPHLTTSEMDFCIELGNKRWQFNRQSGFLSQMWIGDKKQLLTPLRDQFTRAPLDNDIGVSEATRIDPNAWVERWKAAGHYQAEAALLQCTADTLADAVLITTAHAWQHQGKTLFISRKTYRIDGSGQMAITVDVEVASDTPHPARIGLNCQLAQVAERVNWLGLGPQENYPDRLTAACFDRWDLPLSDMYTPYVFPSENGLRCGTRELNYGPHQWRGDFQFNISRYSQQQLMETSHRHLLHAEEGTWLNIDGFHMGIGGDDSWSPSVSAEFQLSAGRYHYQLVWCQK

[6] = molecular target: T4, Heat shock factor protein 1 (Mus musculus, UniProt P38532); assay: decrease of HSF1-responsive luciferase luminescence – cell-based, NIH3T3, dose retest, confirmation (AID 2382); format: functional;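 further: NIH3T3 fibroblasts with HSF1-driven luciferase reporter stressed by proteasome inhibitor MG132; luminescence from HSF1-driven luciferase expression after 8 hours of MG132 stress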
T4 sequence (P38532 whole entry): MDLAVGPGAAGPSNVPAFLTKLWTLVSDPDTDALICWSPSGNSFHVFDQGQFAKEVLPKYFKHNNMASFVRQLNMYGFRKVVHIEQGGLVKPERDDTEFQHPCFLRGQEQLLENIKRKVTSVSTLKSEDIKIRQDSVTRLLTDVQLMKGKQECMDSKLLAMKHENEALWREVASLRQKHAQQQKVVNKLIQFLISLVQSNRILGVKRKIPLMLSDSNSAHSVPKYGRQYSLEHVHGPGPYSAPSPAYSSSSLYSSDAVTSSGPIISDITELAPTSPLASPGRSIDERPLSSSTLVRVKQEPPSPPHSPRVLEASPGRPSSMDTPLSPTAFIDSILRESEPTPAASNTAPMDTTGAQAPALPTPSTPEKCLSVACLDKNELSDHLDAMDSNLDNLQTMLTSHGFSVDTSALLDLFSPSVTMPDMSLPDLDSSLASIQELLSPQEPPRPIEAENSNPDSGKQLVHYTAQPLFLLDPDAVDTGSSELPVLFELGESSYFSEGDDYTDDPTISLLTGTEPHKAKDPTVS

[7] = viability loss of HMLE_sh_eGFP cells – cell-based, luminescence, counter-screen for HMLE_sh_ECad selective toxicity project, dose response (AID 463074); format: functional, Homo sapiens;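 further: HMLE human mammary epithelial cells expressing control shRNA against eGFP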
[8] = Luminescence Cell-Based Dose Retest to Confirm Inhibitors of Cancer Stem Cells. [Related pubchem assays (depositor defined):AID2717, AID2721]; format: functional; conditions: Homo sapiens
[9] = molecular target: T5, Corticotropin-releasing factor receptor 2/Corticotropin-releasing factor-binding protein (Homo sapiens, UniProt P24387+Q13324); assay: activators of CRF receptor 2 with binding protein – uHTS hits, confirmation (AID 602473); format: functional; conditions: read-out: EC50_Mean
T5 sequence (Q13324 whole entry): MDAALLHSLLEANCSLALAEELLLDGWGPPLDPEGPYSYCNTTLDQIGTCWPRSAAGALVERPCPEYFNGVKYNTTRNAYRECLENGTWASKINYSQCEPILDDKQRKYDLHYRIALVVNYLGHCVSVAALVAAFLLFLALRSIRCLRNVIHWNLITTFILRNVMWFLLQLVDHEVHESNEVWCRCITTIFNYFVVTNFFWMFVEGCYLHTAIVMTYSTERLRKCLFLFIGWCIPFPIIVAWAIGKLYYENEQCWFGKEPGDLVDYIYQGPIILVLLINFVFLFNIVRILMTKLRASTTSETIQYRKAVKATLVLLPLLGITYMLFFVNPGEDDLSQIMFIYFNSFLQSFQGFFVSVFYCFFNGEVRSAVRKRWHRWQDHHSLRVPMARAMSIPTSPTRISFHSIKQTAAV
T5 sequence (P24387 whole entry): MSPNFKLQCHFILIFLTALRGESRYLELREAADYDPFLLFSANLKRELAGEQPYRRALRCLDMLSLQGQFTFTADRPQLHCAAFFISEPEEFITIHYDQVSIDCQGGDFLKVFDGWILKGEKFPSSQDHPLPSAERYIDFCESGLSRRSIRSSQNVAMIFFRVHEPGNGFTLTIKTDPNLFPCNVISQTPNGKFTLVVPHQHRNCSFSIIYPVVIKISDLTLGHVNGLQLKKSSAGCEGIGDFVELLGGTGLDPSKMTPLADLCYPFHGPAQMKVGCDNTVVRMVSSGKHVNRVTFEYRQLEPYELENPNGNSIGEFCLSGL

[10] = blockers of CRF-binding protein–CRF-R2 complex – cell-based, uHTS hits, 384-well, dose response (AID 651639); format: functional, Homo sapiens; conditions: read-out: IC50_Mean
[11] = molecular target: T5, Corticotropin-releasing factor receptor 2/Corticotropin-releasing factor-binding protein; assay: Dose Response confirmation of uHTS hits for small molecule antagonists of the CRF-binding protein and CRF-R2 receptor complex.; format: functional; conditions: read-out: IC50_Mean
[12] = antiviral protection against BTV-induced cell death – arbovirus, BSR cells, confirmation (AID 1250); format: functional;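 further: protection from viral cytopathic effect measured as cell viability by ATP luminescence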
[13] = molecular target: Intestinal-type alkaline phosphatase (Mus musculus, UniProt P24822); assay: PubChem AID 488874; format: functional
Sequence of Intestinal-type alkaline phosphatase (Mus musculus, UniProt P24822) (P24822 whole entry): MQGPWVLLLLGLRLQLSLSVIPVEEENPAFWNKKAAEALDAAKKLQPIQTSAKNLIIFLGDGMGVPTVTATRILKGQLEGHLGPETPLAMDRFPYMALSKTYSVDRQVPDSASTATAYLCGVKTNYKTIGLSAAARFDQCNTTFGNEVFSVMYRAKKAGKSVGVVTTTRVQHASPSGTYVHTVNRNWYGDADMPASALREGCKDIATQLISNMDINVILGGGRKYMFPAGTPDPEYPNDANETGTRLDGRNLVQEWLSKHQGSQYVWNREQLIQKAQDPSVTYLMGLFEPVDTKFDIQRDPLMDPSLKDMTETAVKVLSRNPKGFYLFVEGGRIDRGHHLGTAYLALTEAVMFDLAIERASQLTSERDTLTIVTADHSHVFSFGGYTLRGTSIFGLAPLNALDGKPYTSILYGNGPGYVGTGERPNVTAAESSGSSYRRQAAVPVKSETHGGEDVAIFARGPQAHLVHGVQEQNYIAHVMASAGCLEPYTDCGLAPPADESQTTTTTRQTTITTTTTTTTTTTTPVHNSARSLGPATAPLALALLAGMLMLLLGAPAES

[14] = molecular target: T6, Alkaline phosphatase, tissue-nonspecific isozyme (Homo sapiens, UniProt P05186); assay: activation of tissue-nonspecific alkaline phosphatase – biochemical, TNAP isozyme, human IAP uHTS hits, selectivity assay for human IAP activator project, dose response (AID 488886); format: functional;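 further: potency of compounds raising TNAP activity as a selectivity check on IAP activators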
T6 sequence (P05186 whole entry): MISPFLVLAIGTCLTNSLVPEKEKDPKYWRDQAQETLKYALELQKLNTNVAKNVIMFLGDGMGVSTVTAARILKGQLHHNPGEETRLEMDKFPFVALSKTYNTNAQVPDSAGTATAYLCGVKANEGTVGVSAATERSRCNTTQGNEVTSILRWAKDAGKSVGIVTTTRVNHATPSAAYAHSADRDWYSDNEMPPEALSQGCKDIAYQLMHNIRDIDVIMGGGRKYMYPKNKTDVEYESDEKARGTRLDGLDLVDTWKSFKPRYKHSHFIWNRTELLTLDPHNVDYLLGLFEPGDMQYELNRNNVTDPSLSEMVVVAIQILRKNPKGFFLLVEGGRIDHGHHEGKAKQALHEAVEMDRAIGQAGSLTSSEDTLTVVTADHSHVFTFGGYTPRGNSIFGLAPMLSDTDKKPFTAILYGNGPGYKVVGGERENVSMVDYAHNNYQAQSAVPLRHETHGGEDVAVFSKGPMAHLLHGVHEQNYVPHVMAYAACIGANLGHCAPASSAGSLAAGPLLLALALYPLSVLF

[15] = molecular target: T7, Intestinal-type alkaline phosphatase (Homo sapiens, UniProt P09923); assay: human intestinal alkaline phosphatase activators, dose response, biochemical, luminescence, uHTS hits (AID 463120); format: functional
T7 sequence (P09923 whole entry): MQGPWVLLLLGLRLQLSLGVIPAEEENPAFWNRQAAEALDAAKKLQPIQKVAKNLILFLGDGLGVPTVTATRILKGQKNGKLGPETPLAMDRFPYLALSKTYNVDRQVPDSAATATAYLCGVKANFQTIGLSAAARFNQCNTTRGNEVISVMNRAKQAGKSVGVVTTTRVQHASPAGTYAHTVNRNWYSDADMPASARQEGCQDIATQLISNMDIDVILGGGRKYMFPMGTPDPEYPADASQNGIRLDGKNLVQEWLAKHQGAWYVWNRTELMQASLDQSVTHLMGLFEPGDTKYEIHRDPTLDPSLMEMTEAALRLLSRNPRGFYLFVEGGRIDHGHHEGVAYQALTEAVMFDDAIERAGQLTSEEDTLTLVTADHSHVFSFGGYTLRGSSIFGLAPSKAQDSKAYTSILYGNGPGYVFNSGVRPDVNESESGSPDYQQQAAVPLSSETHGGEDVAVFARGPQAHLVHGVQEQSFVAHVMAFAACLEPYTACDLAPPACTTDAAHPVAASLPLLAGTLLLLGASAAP

[16] = molecular target: T7, Intestinal-type alkaline phosphatase; assay: activation of human intestinal alkaline phosphatase – biochemical, luminescent, uHTS hits, set 2, dose response (AID 488817); format: functional;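 further: potency of activators that raise enzyme activity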
[17] = molecular target: T3, Delta-type opioid receptor; assay: SAR Analysis of Antagonists of the DOR Receptor using an Image-Based Assay - Set 2. [Related pubchem assays (depositor defined):AID1777, AID1785, AID1786, AID1966, AID2133, AID2136, AID2284, AID2285, AID2357]; format: functional
Mu-type opioid receptor [18] = molecular target: T2, Mu-type opioid receptor; assay: SAR Analysis of Antagonists of the MOR Receptor using an Image-Based Assay - Set 2. [Related pubchem assays (depositor defined):AID1777, AID1785, AID1786, AID1966, AID2133, AID2136, AID2284, AID2285, AID2420]; format: functional
[19] = molecular target: T3, Delta-type opioid receptor; assay: SAR Analysis of Agonists of the DOR Receptor using an Image-Based Assay - Set 2. [Related pubchem assays (depositor defined):AID1777, AID1785, AID1786, AID1966, AID2133, AID2136, AID2284, AID2285, AID2370]; format: functional
Mu-type opioid receptor [20] = molecular target: T2, Mu-type opioid receptor; assay: SAR Analysis of Agonists of the MOR Receptor using an Image-Based Assay - Set 2. [Related pubchem assays (depositor defined):AID1777, AID1785, AID1786, AID1966, AID2133, AID2136, AID2284, AID2285, AID2352]; format: functional
HEK293 [21] = assay: inhibition of NOD1-driven NF-kB reporter – cell-based, luminescence, uHTS, primary screen (AID 1578); format: functional; conditions: Homo sapiens
HEK293 [22] = assay: cells; format: functional, cell-based; conditions: Homo sapiens
HEK293 [23] = assay: cells; format: functional, cell-based; conditions: Homo sapiens; remark: listed apart in the source
[24] = molecular target: Nucleotide-binding oligomerization domain-containing protein 1 (Homo sapiens, UniProt Q9Y239); assay: blockers of NOD1 pathway activity – revised, SAR follow-up (AID 2333); format: functional
Sequence of Nucleotide-binding oligomerization domain-containing protein 1 (Q9Y239 whole entry, the tested form may be a part): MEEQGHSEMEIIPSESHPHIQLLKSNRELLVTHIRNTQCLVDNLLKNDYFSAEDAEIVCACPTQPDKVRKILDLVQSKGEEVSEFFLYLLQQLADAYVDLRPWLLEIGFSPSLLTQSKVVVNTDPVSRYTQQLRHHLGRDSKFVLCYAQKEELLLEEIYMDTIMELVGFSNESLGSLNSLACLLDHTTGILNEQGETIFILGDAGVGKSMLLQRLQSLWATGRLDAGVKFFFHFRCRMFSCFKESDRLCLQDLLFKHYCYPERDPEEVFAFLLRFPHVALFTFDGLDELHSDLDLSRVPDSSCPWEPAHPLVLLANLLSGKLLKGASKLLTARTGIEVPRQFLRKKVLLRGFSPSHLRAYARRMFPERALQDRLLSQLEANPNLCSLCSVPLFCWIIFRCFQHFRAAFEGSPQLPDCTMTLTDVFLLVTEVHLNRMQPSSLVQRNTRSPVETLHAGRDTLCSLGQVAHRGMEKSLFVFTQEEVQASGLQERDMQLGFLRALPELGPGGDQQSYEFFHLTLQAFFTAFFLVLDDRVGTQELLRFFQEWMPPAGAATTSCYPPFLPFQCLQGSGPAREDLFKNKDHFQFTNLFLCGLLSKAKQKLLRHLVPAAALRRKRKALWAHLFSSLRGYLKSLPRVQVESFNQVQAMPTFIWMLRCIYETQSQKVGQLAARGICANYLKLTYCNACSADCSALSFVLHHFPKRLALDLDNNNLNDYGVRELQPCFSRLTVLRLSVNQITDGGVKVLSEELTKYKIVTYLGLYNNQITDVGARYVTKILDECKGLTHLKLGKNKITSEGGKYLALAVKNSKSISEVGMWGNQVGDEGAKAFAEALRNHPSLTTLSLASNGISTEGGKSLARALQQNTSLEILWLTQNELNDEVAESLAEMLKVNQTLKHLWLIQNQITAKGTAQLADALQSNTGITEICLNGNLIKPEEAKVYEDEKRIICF

HEK293 [25] = assay: cells; conditions: Homo sapiens
Tumor necrosis factor = Tumor necrosis factor (Homo sapiens, UniProt P01375); assay: analog potency on TNFa NF-kB signaling – cell-based, revised, SAR follow-up (AID 2337); format: functional
Sequence of Tumor necrosis factor (P01375 whole entry, the tested form may be a part): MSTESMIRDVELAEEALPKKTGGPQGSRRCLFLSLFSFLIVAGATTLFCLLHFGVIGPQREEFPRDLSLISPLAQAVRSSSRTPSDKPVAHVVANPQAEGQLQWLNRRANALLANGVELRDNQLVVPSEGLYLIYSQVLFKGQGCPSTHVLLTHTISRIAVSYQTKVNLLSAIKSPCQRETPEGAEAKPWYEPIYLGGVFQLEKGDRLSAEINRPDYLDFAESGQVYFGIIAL

[26] = molecular target: Nucleotide-binding oligomerization domain-containing protein 2 (Homo sapiens, UniProt Q9HC29); assay: inhibition of NOD2-driven NF-kB reporter – cell-based, luminescence, uHTS, HEK293 (AID 1566); format: functional
HEK293 [27] = assay: NOD2 signaling inhibitors in MDP-stimulated cells, cell-based, uHTS, luminescence (AID 2001); format: functional; conditions: Homo sapiens
HEK293 [28] = assay: cells; format: functional, cell-based; conditions: Homo sapiens; remark: listed apart in the source
[29] = molecular target: UDP-galactopyranose mutase (Mycobacterium tuberculosis, UniProt P9WIQ1); assay: Inhibitors of Mycobacterium tuberculosis UDP-galactopyranose mutase (UGM) enzyme Measured in Biochemical System Using Plate Reader - 2105-02_Inhibitor_Dose_CherryPick_Activity. [Related pubchem assays (depositor defined):AID504439]
Sequence of UDP-galactopyranose mutase (P9WIQ1 whole entry): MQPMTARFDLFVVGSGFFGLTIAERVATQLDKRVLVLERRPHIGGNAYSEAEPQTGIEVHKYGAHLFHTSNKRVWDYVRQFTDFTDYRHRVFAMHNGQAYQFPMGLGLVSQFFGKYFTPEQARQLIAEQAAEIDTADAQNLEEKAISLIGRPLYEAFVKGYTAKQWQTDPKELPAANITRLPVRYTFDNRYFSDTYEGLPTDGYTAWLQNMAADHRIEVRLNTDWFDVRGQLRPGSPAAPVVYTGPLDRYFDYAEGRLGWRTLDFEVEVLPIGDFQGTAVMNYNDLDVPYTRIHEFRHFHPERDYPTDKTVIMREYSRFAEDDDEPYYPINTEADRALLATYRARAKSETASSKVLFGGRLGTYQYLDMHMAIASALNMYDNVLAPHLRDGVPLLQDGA

T1 sequence (P41145 whole entry): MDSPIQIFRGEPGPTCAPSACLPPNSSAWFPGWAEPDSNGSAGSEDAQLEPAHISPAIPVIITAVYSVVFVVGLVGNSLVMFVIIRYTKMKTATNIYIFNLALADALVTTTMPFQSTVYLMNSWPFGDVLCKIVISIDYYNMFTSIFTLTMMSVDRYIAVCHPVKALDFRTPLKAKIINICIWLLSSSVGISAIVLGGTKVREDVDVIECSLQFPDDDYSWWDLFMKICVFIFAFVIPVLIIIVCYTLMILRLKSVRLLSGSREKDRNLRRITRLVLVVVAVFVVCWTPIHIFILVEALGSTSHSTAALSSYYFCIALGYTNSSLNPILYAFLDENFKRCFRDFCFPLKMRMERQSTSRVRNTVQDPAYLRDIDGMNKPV

SMILES: CCCN(CCC)CC(O)Cn1cc(/C=C/C(=O)c2cccs2)c2ccccc21 (stereo unspecified)
- IC50 [1]: 4.14 µM
- EC50 (Mu-type opioid receptor [2]): > 32 µM (inactive)
- EC50 [3]: > 32 µM (inactive)
- IC50 [4]: > 32 µM (inactive)
- IC50 [5]: 11.3 µM (active)
- EC50 (Beta-galactosidase): > 31.5 µM (inactive)

SMILES: CC(C)Cc1csc(NC(=O)c2ccc(F)cc2)c1C(=O)O
- EC50 [6]: 9.87 µM (active)
- AC50 [7]: 52.3 µM (active)
- AC50 [8]: 25.9 µM (active)
- EC50 [9]: > 53 µM (inactive)
- IC50 [10]: > 20 µM (inactive)
- IC50 [11]: 10.3 µM (active)
- IC50 [12]: 36.3 µM (active)

SMILES: CSCCC(NS(=O)(=O)c1ccccc1F)C(=O)NNC(=O)c1csc(N2CCOCC2)n1 (stereo unspecified)
- IC50 [13]: 70.1 µM (active)
- EC50 [14]: 26.4 µM (active)
- EC50 [15]: 8.88 µM (active)
- EC50 [16]: 10.6 µM (active)

SMILES: Clc1ccc(CSc2nnc(-c3ccccn3)n2Cc2ccco2)cc1Cl
- IC50 [17]: > 32 µM (inactive)
- IC50 (Mu-type opioid receptor [18]): > 32 µM (inactive)
- EC50 [19]: > 32 µM (inactive)
- EC50 (Mu-type opioid receptor [20]): > 32 µM (inactive)

SMILES: O=C(/C=C/c1cccs1)Nc1sc2c(c1C(=O)O)CCCC2
- EC50 (HEK293 [21]): 8.28 µM (active)
- IC50 (HEK293 [22]): > 20 µM (inactive)
- IC50 (HEK293 [23]): > 20 µM (inactive)
- IC50 [24]: 6.42 µM (active)
- IC50 (HEK293 [25]): > 20 µM (inactive)
- IC50 (Tumor necrosis factor): > 20 µM (inactive)
- EC50 [26]: > 20 µM (inactive)
- IC50 (HEK293 [27]): > 20 µM (inactive)
- IC50 (HEK293 [28]): > 20 µM (inactive)

SMILES: COCCCNC(=O)Cn1cc(/C=C2\C(=O)NC(=O)N(c3ccccc3F)C2=O)c2ccccc21
- AC50 [29]: 43.7 µM (active)
